The values that follow come from patent US10703748B2, “Diazanaphthalen-3-yl carboxamides and preparation and use thereof” (Samumed, LLC, priority 2017, dated 2020).

Assay [1] has as its system SW480 colon carcinoma cells. Put plainly: Cell viability assay (CellTiter-Glo). The conditions noted are these: Homo sapiens; for EC50: SW480, 96 h; for inhibition at 10 µM: SW480, read-out: percent inhibition at 10 μM.
In a further assay the target is DYRK1A kinase (Homo sapiens, UniProt Q13627). Put plainly: DYRK1A kinase activity (Ser/Thr 18 peptide Z-lyte FRET assay).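 Also: kinase activity read as coumarin/fluorescein emission ratio after development step, with unphosphorylated and phosphorylated peptide forms setting 0% and 100% controls, values from dose-response curves.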 The conditions noted are these: recombinant DYRK1A, 30 μM ATP, one hour at room temperature. The assay is classed as biochemical.
Assay [2] concerns α-smooth muscle actin (aSMA) positive LL29 cells. Put plainly: Inhibition of the fibrotic process: αSMA staining in TGF-β1 treated LL29 fibroblasts from IPF patients. As to conditions: Homo sapiens, Fibroblast; for EC50: 96 h; for inhibition at 10 µM: read-out: percentage in parentheses after EC50 >10.
The test system of assay [3] is Wnt-responsive Sp5-Luc reporter in SW480 colon carcinoma cells. Put plainly: Screening assay for Wnt activity (Sp5-Luc reporter gene assay). The conditions noted are these: Homo sapiens; for EC50: SW480; for inhibition at 10 µM: SW480, read-out: percent inhibition at 10 μM.
The target in a further assay is GSK3β kinase (Homo sapiens, UniProt P49841). Put plainly: GSK3β kinase activity (Ser/Thr 09 peptide Z-lyte FRET assay). Type of assay: biochemical. The conditions noted are these: recombinant kinase, 46 μM ATP, one hour at room temperature; read-out: EC50.
Sequence of GSK3β kinase (P49841 whole entry): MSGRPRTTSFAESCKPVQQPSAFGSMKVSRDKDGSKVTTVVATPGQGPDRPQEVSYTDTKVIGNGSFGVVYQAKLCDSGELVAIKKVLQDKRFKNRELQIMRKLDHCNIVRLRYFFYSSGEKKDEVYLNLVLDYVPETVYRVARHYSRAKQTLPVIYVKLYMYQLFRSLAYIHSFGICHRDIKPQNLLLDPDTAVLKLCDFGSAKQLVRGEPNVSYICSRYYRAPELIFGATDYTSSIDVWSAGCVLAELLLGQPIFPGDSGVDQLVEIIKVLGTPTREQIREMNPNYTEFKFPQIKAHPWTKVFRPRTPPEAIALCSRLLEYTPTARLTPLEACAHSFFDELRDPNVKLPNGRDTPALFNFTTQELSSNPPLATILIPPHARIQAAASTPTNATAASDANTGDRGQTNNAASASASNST
Assay [4] relates to secreted cytokines TNFα, IL-6 and KC-GRO. Put plainly: Secreted cytokines in Lipopolysaccharide-stimulated BV-2 cells (Table 9 does not say which cytokine). Type of assay: cell-based, mouse. As to conditions: Mus musculus, BV-2, 5 h; read-out: EC50.
The next assay deals with IL-6. Put plainly: IL-6 inhibition in LPS-stimulated human peripheral blood mononuclear cells (HTRF). The conditions noted are these: Homo sapiens, PBMC; for EC50: 22 h; for inhibition at 10 µM: read-out: percentage in parentheses after EC50 >10.

`Cc1ncc(-c2ccc3cnc(NC(=O)c4ccnc(N5CCN(C)CC5)c4)cc3n2)s1` [Compound 643, 2-(4-Methylpiperazin-1-yl)-N-(2-(2-methylthiazol-5-yl)-1,6-naphthyridin-7-yl)isonicotinamide]: the EC50 in assay [1] is 803 nM; at DYRK1A kinase it was 10 nM; in assay [2], 1430 nM; in assay [3], 688 nM; at GSK3β kinase it was 8560 nM; in assay [4] it was no less than 10000 nM. The response in the assay on IL-6 was half-maximal at 9220 nM (EC50).

For `Nc1cncc(-c2ccc3cnc(NC(=O)c4ccc(OC5CCNCC5)cc4)cc3n2)c1` [Compound 804, N-(2-(5-Aminopyridin-3-yl)-1,6-naphthyridin-7-yl)-4-(piperidin-4-yloxy)benzamide], the concentration giving a half-maximal response (EC50) in assay [1] was found to be 272 nM; at DYRK1A kinase, 2 nM; in assay [2], 482 nM; in assay [3], 289 nM; at GSK3β kinase it was 4680 nM; in assay [4] it was 104 nM. This molecule also returned an EC50 in the assay on IL-6 of 1590 nM.

Consider `CN1CCN(c2cc(C(=O)Nc3cc4nc(-c5ccc(N)nc5)ccc4cn3)ccn2)CC1` [Compound 807, N-(2-(6-Aminopyridin-3-yl)-1,6-naphthyridin-7-yl)-2-(4-methylpiperazin-1-yl)isonicotinamide], for which the EC50 in assay [1] was 860 nM; on DYRK1A kinase, 7 nM; in assay [2], 1410 nM; in assay [3] it was 484 nM; at GSK3β kinase it was greater than 10000 nM; in assay [4] it was 265 nM. In the assay with IL-6, this molecule had an EC50 of 4200 nM.

On to `O=C(Nc1cc2nc(-c3cncc(NCC4(F)CNC4)n3)ccc2cn1)C1CC1` [Compound 871, N-(2-(6-(((3-Fluoroazetidin-3-yl)methyl)amino)pyrazin-2-yl)-1,6-naphthyridin-7-yl)cyclopropanecarboxamide], for which the concentration giving a half-maximal response (EC50) in assay [1] was greater than 10000 nM; on DYRK1A kinase, 25 nM; in assay [2], 8050 nM; in assay [3] it was greater than 10000 nM; at GSK3β kinase it was 360 nM; in assay [4], 306 nM. This molecule also yielded an EC50 with IL-6 of 3420 nM. The inhibition at 10 µM in assay [1] was found to be 33.5%; in assay [3], 24.7%.

With `O=C(Nc1cc2nc(-c3cncc(NC4CCNCC4)n3)ccc2cn1)C1CCOCC1` [Compound 877, N-(2-(6-(Piperidin-4-ylamino)pyrazin-2-yl)-1,6-naphthyridin-7-yl)tetrahydro-2H-pyran-4-carboxamide], the EC50 in assay [1] was greater than 10000 nM; at DYRK1A kinase it was 16 nM; in assay [2], greater than 10000 nM; in assay [3], greater than 10000 nM; on GSK3β kinase, 9920 nM; in assay [4], 2700 nM. The EC50 in the assay with IL-6 is greater than 10000 nM. In addition, the inhibition at 10 µM in assay [1] was 11.7%; in assay [2], 23.6%; in assay [3], 0%; in the assay with IL-6 it was 6.8%.

On to `CN1CCC(n2cc(C(=O)Nc3cc4nc(-c5cncc6[nH]ccc56)ccc4cn3)cn2)CC1` [Compound 896, N-(2-(1H-Pyrrolo[2,3-c]pyridin-4-yl)-1,6-naphthyridin-7-yl)-1-(1-methylpiperidin-4-yl)-1H-pyrazole-4-carboxamide], for which the EC50 in assay [1] was 109 nM; on DYRK1A kinase, 5 nM; in assay [2], 335 nM; in assay [3], 121 nM; at GSK3β kinase it was greater than 10000 nM; in assay [4] it was 266 nM. Also, in the assay on IL-6, the response was half-maximal at 1680 nM (EC50).

Turning to `CN1CCN(c2cccc(C(=O)Nc3ncc4ccc(-c5cnn(C)c5)cc4n3)c2)CC1` [Compound 1047, N-(7-(1-Methyl-1H-pyrazol-4-yl)quinazolin-2-yl)-3-(4-methylpiperazin-1-yl) benzamide], the EC50 in assay [1] is 8470 nM; on DYRK1A kinase, 8 nM; in assay [2], 1930 nM; in assay [3], 573 nM; on GSK3β kinase it was 661 nM; in assay [4], 780 nM. The EC50 with IL-6 was determined as 3710 nM.

With `CN1CCN(c2cc(C(=O)Nc3ncc4ccc(-c5cnn(C)c5)cc4n3)ccn2)CC1` [Compound 1054, N-(7-(1-Methyl-1H-pyrazol-4-yl)quinazolin-2-yl)-2-(4-methylpiperazin-1-yl) isonicotinamide], the EC50 turned out to be 719 nM in assay [1]; 8 nM on DYRK1A kinase; 2340 nM in assay [2]; 468 nM in assay [3]; 3650 nM at GSK3β kinase; 1200 nM in assay [4]. Further, a half-maximal response in the assay with IL-6 (EC50) required 3930 nM.

With `CN1CCN(c2ccc(C(=O)Nc3ncc4ccc(-c5cnn(C)c5)cc4n3)cn2)CC1` [Compound 1058, N-(7-(1-Methyl-1H-pyrazol-4-yl)quinazolin-2-yl)-6-(4-methylpiperazin-1-yl)nicotinamide], the EC50 in assay [1] was 9430 nM; on DYRK1A kinase, 9 nM; in assay [2], greater than 10000 nM; in assay [3], 2150 nM; at GSK3β kinase, 3130 nM; in assay [4] it was 286 nM. The molecule also displayed an EC50 in the assay with IL-6 greater than 10000 nM. The inhibition at 10 µM in assay [2] turned out to be 8.8%; with IL-6, 3%.

Consider `Cn1cc(-c2ccc3cnc(NC(=O)c4ccnc(OC5CCNCC5)c4)nc3c2)cn1` [Compound 1060, N-(7-(1-Methyl-1H-pyrazol-4-yl)quinazolin-2-yl)-2-(piperidin-4-yloxy)isonicotinamide], for which the EC50 in assay [1] was 6960 nM; at DYRK1A kinase, 27 nM; in assay [2] it was greater than 10000 nM; in assay [3], 3570 nM; at GSK3β kinase, greater than 10000 nM; in assay [4], 280 nM. In the assay with IL-6, this molecule yielded an EC50 greater than 10000 nM. Moreover, the inhibition at 10 µM in assay [2] came out at 28.6%; in the assay on IL-6, 4.9%.

Turning to `CN(C)CCNc1cc(C(=O)Nc2ncc3ccc(-c4cnn(C)c4)cc3n2)ccn1` [Compound 1071, 2-((2-(Dimethylamino)ethyl)amino)-N-(7-(1-methyl-1H-pyrazol-4-yl)quinazolin-2-yl)isonicotinamide], the EC50 was 3470 nM in assay [1]; 10 nM on DYRK1A kinase; 6840 nM in assay [2]; 1530 nM in assay [3]; greater than 10000 nM at GSK3β kinase; 1800 nM in assay [4]. In the assay with IL-6, the EC50 is greater than 10000 nM. The inhibition at 10 µM in the assay on IL-6 amounted to 11.8%.

For the molecule `CN(C)Cc1ccc(C(=O)Nc2ncc3ccc(-c4cnn(C)c4)cc3n2)cc1` [Compound 1077, 4-((Dimethylamino)methyl)-N-(7-(1-methyl-1H-pyrazol-4-yl)quinazolin-2-yl)benzamide], the EC50 in assay [1] came to 3400 nM; at DYRK1A kinase it was 16 nM; in assay [2] it was 3920 nM; in assay [3] it was 1080 nM; on GSK3β kinase, 4140 nM; in assay [4], 203 nM. Also, a half-maximal response in the assay on IL-6 (EC50) required 9200 nM.

In the case of `CN1CCN(Cc2cccc(C(=O)Nc3ncc4ccc(-c5cnn(C)c5)cc4n3)c2)CC1` [Compound 1079, N-(7-(1-Methyl-1H-pyrazol-4-yl)quinazolin-2-yl)-3-((4-methylpiperazin-1-yl)methyl)benzamide], the concentration giving a half-maximal response (EC50) in assay [1] is 3390 nM; at DYRK1A kinase, 19 nM; in assay [2], greater than 10000 nM; in assay [3], 1000 nM; on GSK3β kinase it was 9740 nM; in assay [4], 1400 nM. For the same molecule, the EC50 with IL-6 is greater than 10000 nM. Also, the inhibition at 10 µM in assay [2] was 14.3%; with IL-6, 12.7%.

Consider `CN1CCc2ccc(C(=O)Nc3ncc4ccc(-c5cnn(C)c5)cc4n3)cc2C1` [Compound 1109, 2-Methyl-N-(7-(1-methyl-1H-pyrazol-4-yl)quinazolin-2-yl)-1,2,3,4-tetrahydroisoquinoline-7-carboxamide], for which the EC50 was 9480 nM in assay [1]; 18 nM at DYRK1A kinase; greater than 10000 nM in assay [2]; 1920 nM in assay [3]; greater than 10000 nM at GSK3β kinase; 349 nM in assay [4]. This molecule had an EC50 in the assay with IL-6 greater than 10000 nM. Besides, the results for the inhibition at 10 µM (in assay [2]; with IL-6) were 16.4% and 6.3%, respectively.

Take `Cn1cc(-c2ccc3cnc(NC(=O)c4ccc5ccoc5c4)nc3c2)cn1` [Compound 1116, N-(7-(1-Methyl-1H-pyrazol-4-yl)quinazolin-2-yl)benzofuran-6-carboxamide]: the EC50 in assay [1] was 3030 nM; on DYRK1A kinase it was 15 nM; in assay [2] it was 2720 nM; in assay [3] it was 791 nM; on GSK3β kinase, greater than 10000 nM; in assay [4], 960 nM. Moreover, in the assay on IL-6, the EC50 is greater than 10000 nM. For the same molecule, the inhibition at 10 µM in the assay on IL-6 is 3.8%.

Take `Cn1cc(-c2ccc3cnc(NC(=O)c4ccc5nccnc5c4)nc3c2)cn1` [Compound 1123, N-(7-(1-Methyl-1H-pyrazol-4-yl)quinazolin-2-yl)quinoxaline-6-carboxamide]: the concentration giving a half-maximal response (EC50) is 6120 nM in assay [1]; 13 nM at DYRK1A kinase; greater than 10000 nM in assay [2]; 1960 nM in assay [3]; 4800 nM on GSK3β kinase; 1000 nM in assay [4]. In the assay on IL-6, this molecule yielded an EC50 greater than 10000 nM. In addition, the values for the inhibition at 10 µM (in assay [2]; with IL-6) were 22% and 6.5%, respectively.
